Measured values taken from paper PMC8898874, “NPT1220-312, a TLR2/TLR9 Small Molecule Antagonist, Inhibits Pro-Inflammatory Signaling, Cytokine Release, and NLRP3 Inflammasome Activation” (International Journal of Inflammation, 2022).

Assays:
TLR1/2 = biological target: T1, TLR1/2 (Homo sapiens, UniProt O60603); experiment: HEK-Blue hTLR2 SEAP reporter assay, Pam3CSK4-activated (TLR1/2); type: cell-based; settings: hTLR2 HEK cells activated with Pam3CSK4; mean of at least three determinations; read-out: IC50 (PAM-3; μM)
T1 construct: host or cells: HEK293 (HEK-Blue hTLR2)
T1 sequence (O60603 21-784): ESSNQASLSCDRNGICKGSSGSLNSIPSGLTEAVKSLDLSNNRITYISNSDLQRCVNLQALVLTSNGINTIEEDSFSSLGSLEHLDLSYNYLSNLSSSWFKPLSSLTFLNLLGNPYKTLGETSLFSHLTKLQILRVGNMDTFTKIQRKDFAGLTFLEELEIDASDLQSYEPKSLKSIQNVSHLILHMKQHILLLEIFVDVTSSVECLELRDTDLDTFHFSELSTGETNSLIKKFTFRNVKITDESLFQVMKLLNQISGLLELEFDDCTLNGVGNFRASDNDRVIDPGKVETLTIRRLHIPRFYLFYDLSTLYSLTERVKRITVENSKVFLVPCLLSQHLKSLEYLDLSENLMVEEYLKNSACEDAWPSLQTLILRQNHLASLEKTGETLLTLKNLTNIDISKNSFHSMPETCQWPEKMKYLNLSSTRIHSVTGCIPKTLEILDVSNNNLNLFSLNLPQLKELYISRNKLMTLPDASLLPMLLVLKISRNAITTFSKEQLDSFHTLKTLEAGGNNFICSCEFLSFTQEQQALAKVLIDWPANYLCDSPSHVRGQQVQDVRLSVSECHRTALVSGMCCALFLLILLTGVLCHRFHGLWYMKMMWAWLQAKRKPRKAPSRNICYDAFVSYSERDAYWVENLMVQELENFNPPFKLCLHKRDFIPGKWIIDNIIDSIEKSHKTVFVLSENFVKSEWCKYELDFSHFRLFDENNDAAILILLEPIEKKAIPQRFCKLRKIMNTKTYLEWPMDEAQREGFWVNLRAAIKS
Excerpt: (§1) Human embryonic kidney (HEK) Blue hTLR2 secreted embryonic alkaline phosphatase (SEAP) reporter 293 cells, expressing the human TLR2 gene; HEK-Blue hTLR3 SEAP reporter 293 cells, expressing the human TLR3 gene; HEK-Blue hTLR4 SEAP reporter 293 cells, expressing the human TLR4 gene; HEK-Blue hTLR7 SEAP reporter 293 cells, expressing the human TLR7 gene; and HEK-Blue hTLR8 SEAP reporter 293 cells, expressing the human TLR8 gene. HEK Blue cells expressing recombinant human TLRs were obtained by cotransfection of the human TLR2, TLR3, TLR4, TLR7, TLR8, or TLR9 and SEAP (secreted embryonic alkaline phosphatase) genes into HEK293 cells. The SEAP reporter gene was placed under the control of a minimal promoter fused to five NFĸB and AP-1 binding sites. Stimulation with TLRs ligands activates NFĸB and AP-1 that induce the production of SEAP. Therefore, these cells are designed for studying the stimulation of TLRs by monitoring the activation of NFĸB/AP-1. These NFĸB reporter cell lines were used as a primary screening tool due to their robust and well-characterized responses to TLRs activators and inhibitors. […]

TLR2/6 = biological target: T2, TLR2/6 (Homo sapiens, UniProt O60603); experiment: HEK-Blue hTLR2 SEAP reporter assay, Pam2CSK4-activated (TLR2/6); type: cell-based; settings: hTLR2 HEK cells activated with Pam2CSK4; mean of at least three determinations; read-out: IC50 (PAM-2; μM)
T2 construct: host or cells: HEK293 (HEK-Blue hTLR2)
T2 sequence (O60603 21-784): as above
Excerpt: as §1

- IC50 (TLR1/2): 40.2 µM
- IC50 (TLR2/6): 61.6 µM
SMILES: COc1cccc(C=O)c1O [O-vanillin]
